Square brackets hold non-standard residues; d marks the D form. Peptide text beside a SMILES is read from it. * marks the point of attachment. Lys(5-FITC)NH2 = NC(=O)[C@H](CCCCNC(=S)Nc1ccc2c(c1)C(=O)OC21c2ccc(O)cc2Oc2cc(O)ccc21)N*; FITC = O=C1OC2(c3ccc(O)cc3Oc3cc(O)ccc32)c2ccc(NC(=S)*)cc21; Phe(4-F) = N[C@@H](Cc1ccc(F)cc1)C(=O)O; d2Nal = N[C@H](Cc1ccc2ccccc2c1)C(=O)O; Benzoyl(3-Br) = O=C(c1cccc(Br)c1)*; Benzoyl(3-Cl) = O=C(c1cccc(Cl)c1)*; Isonicotinoyl = O=C(c1ccncc1)*; Phg = N[C@H](C(=O)O)c1ccccc1; Tle = CC(C)(C)[C@H](N)C(=O)O; X2 = O=C(C=Cc1ccc(Cl)cc1)*; X5 = O=C(c1cc(F)cc(Br)c1)*; dNle = CCCC[C@@H](N)C(=O)O; X4 = O=C(c1ccc(Cl)nc1)*; Dap = NC[C@H](N)C(=O)O; Bn = c1ccc(C*)cc1
Target: T1, K-Ras(G12V) (Homo sapiens, UniProt P01116, G12V)
T1 construct: The G12V mutant K-Ras (amino acids 1-185) was recombinantly fused; GST (N, cleaved yes); made in house; host or cells: Escherichia coli BL21
T1 sequence (P01116 1-185 isoform P01116-2 G12V): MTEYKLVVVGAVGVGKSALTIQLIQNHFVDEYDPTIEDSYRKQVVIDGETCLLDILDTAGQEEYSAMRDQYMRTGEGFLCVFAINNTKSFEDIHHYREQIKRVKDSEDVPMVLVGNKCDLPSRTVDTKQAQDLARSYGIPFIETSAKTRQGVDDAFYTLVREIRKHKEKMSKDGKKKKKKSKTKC
Assay: Fluorescence anisotropy (FA) binding of FITC-labeled cyclic peptides to K-Ras
Conditions: Table 1; resynthesized FITC-labeled peptides, FA, K-Ras; read-out: KD
Method: The 13 hits were resynthesized, labeled with fluorescein isothiocyanate (FITC), purified by HPLC, and tested for binding to K-Ras by fluorescence anisotropy (FA).
For cyclic peptides derived from single library beads (library screening), K-Ras protein (non-GST fusion, 0-20 μM) was incubated with the TMR-labeled peptide (50 or 100 nM) in 20 μL of the blocking buffer for 2.5 h at 24° C. The FA values were measured on a Molecular Devices Spectramax M5 spectrofluorimeter, with excitation and emission wavelengths at 545 and 585 nm, respectively. Equilibrium dissociation constants (KD) were determined by plotting the FA values as a function of K-Ras concentration and fitting the data to the equation
[formula] where Y is the measured anisotropy at a given K-Ras concentration x; L is the peptide concentration; Qb/Qf is the correction fact for dye-protein interaction; Amax is the maximum anisotropy at saturating K-Ras concentration; and Amin is the minimum anisotropy. FA analyses with resynthesized FITC-labeled peptides were similarly carried out, except that the excitation and emission wavelengths were at 494 and 520 nm, respectively.

SMILES	Kd [µM]
C[C@@H](O)[C@@H]1NC(=O)[C@H](Cc2ccc(O)cc2)NC(=O)[C@@H](CC(N)=O)NC(=O)[C@H](Cc2ccc(F)cc2)NC(=O)[C@H](CCCNC(=N)N)NC(=O)[C@@H](Cc2ccc3ccccc3c2)NC(=O)[C@H](CCCNC(=N)N)NC(=O)[C@H](CCCNC(=N)N)NC(=O)[C@H](CCC(=O)N[C@@H](CCCCNC(=S)Nc2ccc3c(c2)C(=O)OC32c3ccc(O)cc3Oc3cc(O)ccc32)C(N)=O)NC(=O)[C@@H](CC(N)=O)NC1=O [Cyclorasin 2A, (Arg-Arg-nal-Arg-Fpa-asn-Tyr-Thr-asn-Gln)] (cyclo(RR[d2Nal]R[Phe(4-F)][dN]YT[dN]E(Lys(5-FITC)NH2)))	> 10
CC(C)[C@H]1NC(=O)[C@H](Cc2ccc(F)cc2)NC(=O)[C@H](Cc2ccc(O)cc2)NC(=O)[C@H](CCCNC(=N)N)NC(=O)[C@H](Cc2ccc(F)cc2)NC(=O)[C@H](CCCNC(=N)N)NC(=O)[C@@H](Cc2ccc3ccccc3c2)NC(=O)[C@H](CCCNC(=N)N)NC(=O)[C@H](CCCNC(=N)N)NC(=O)[C@H](CCC(=O)N[C@@H](CCCCNC(=S)Nc2ccc3c(c2)C(=O)OC32c3ccc(O)cc3Oc3cc(O)ccc32)C(N)=O)NC1=O [Cyclorasin 1A, (Arg-Arg-nal-Arg-Fpa-Arg-Tyr-Fpa-val-Gln)] (cyclo(RR[d2Nal]R[Phe(4-F)]RY[Phe(4-F)][dV]E(Lys(5-FITC)NH2)))	> 10
N=C(N)NCCC[C@@H]1NC(=O)[C@H](CCC(=O)N[C@@H](CCCCNC(=S)Nc2ccc3c(c2)C(=O)OC32c3ccc(O)cc3Oc3cc(O)ccc32)C(N)=O)NC(=O)[C@@H](Cc2ccccc2)NC(=O)[C@@H](CO)NC(=O)[C@H](Cc2ccc(O)cc2)NC(=O)[C@H](c2ccccc2)NC(=O)[C@H](Cc2ccc(F)cc2)NC(=O)[C@H](CCCNC(=N)N)NC(=O)[C@@H](Cc2ccc3ccccc3c2)NC(=O)[C@H](CCCNC(=N)N)NC1=O [Cyclorasin 8A, (Arg-Arg-nal-Arg-Fpa-Phg-Tyr-ser-phe-Gln)] (cyclo(RR[d2Nal]R[Phe(4-F)][Phg]Y[dS][dF]E(Lys(5-FITC)NH2)))	> 10

Same assay, conditions: Table 2; FITC-labeled peptide; read-out: Binding affinity KD

SMILES	Kd [µM]
C[C@H]1NC(=O)[C@H](C(C)(C)C)NC(=O)[C@H](Cc2c[nH]c3ccccc23)NC(=O)[C@H](CCC(N)=O)NC(=O)[C@@H](CCCCNC(=O)c2ccncc2)NC(=O)[C@H](Cc2ccc(F)cc2)NC(=O)[C@H](CCCNC(=N)N)NC(=O)[C@@H](Cc2ccc3ccccc3c2)NC(=O)[C@H](CCCCNC(=S)Nc2ccc3c(c2)C(=O)OC32c3ccc(O)cc3Oc3cc(O)ccc32)NC(=O)[C@H](CCCNC(=N)N)NC(=O)[C@H](CCCNC(=N)N)NC1=O [Cyclorasin 9A35, (Trp-Tle-ala-Arg-Arg-Lys(FITC)-nal-Arg-Fpa-lys(isonicotinoyl)-Gln)] (cyclo(W[Tle][dA]RRK(FITC)[d2Nal]R[Phe(4-F)][dK](Isonicotinoyl)Q))	> 20
C[C@H]1NC(=O)[C@H](C(C)(C)C)NC(=O)[C@H](CNC(=O)c2cccc(Br)c2)NC(=O)[C@H](CCC(N)=O)NC(=O)[C@@H](CCCCN)NC(=O)[C@H](Cc2ccc(F)cc2)NC(=O)[C@H](CCCNC(=N)N)NC(=O)[C@@H](Cc2ccc3ccccc3c2)NC(=O)[C@H](CCCCNC(=S)Nc2ccc3c(c2)C(=O)OC32c3ccc(O)cc3Oc3cc(O)ccc32)NC(=O)[C@H](CCCNC(=N)N)NC(=O)[C@H](CCCNC(=N)N)NC1=O [Cyclorasin 9A30, (Dap(3-bromobenzoyl)-Tle-ala-Arg-Arg-Lys(FITC)-nal-Arg-Fpa-lys-Gln)] (cyclo([Dap](Benzoyl(3-Br))[Tle][dA]RRK(FITC)[d2Nal]R[Phe(4-F)][dK]Q))	0.64 ± 0.07
C[C@H]1NC(=O)[C@H](C(C)(C)C)NC(=O)[C@H](Cc2c[nH]c3ccccc23)NC(=O)[C@H](CCC(N)=O)NC(=O)[C@@H](CCCCNC(=O)c2ccc(Cl)nc2)NC(=O)[C@H](Cc2ccc(F)cc2)NC(=O)[C@H](CCCNC(=N)N)NC(=O)[C@@H](Cc2ccc3ccccc3c2)NC(=O)[C@H](CCCCNC(=S)Nc2ccc3c(c2)C(=O)OC32c3ccc(O)cc3Oc3cc(O)ccc32)NC(=O)[C@H](CCCNC(=N)N)NC(=O)[C@H](CCCNC(=N)N)NC1=O [Cyclorasin 9A33, (Trp-Tle-ala-Arg-Arg-Lys(FITC)-nal-Arg-Fpa-lys(6-chloronicotinoyl)-Gln)] (cyclo(K(FITC)[d2Nal]R[Phe(4-F)][dK](X4)QW[Tle][dA]RR))	> 20
C[C@H]1NC(=O)[C@H](C(C)(C)C)NC(=O)[C@H]([C@@H](C)OCc2ccccc2)NC(=O)[C@H](CCC(N)=O)NC(=O)[C@@H](CCCCN)NC(=O)[C@H](Cc2ccc(F)cc2)NC(=O)[C@H](CCCNC(=N)N)NC(=O)[C@@H](Cc2ccc3ccccc3c2)NC(=O)[C@H](CCCCNC(=S)Nc2ccc3c(c2)C(=O)OC32c3ccc(O)cc3Oc3cc(O)ccc32)NC(=O)[C@H](CCCNC(=N)N)NC(=O)[C@H](CCCNC(=N)N)NC1=O [Cyclorasin 9A26, (Thr(Bzl)-Tle-ala-Arg-Arg-Lys(FITC)-nal-Arg-Fpa-lys-Gln)] (cyclo(K(FITC)[d2Nal]R[Phe(4-F)][dK]QT(Bn)[Tle][dA]RR))	0.71 ± 0.07
C[C@H]1NC(=O)[C@H](C(C)(C)C)NC(=O)[C@H](Cc2c[nH]c3ccccc23)NC(=O)[C@H](CCC(N)=O)NC(=O)[C@@H](CCCCNC(=O)c2cc(F)cc(Br)c2)NC(=O)[C@H](Cc2ccc(F)cc2)NC(=O)[C@H](CCCNC(=N)N)NC(=O)[C@@H](Cc2ccc3ccccc3c2)NC(=O)[C@H](CCCCNC(=S)Nc2ccc3c(c2)C(=O)OC32c3ccc(O)cc3Oc3cc(O)ccc32)NC(=O)[C@H](CCCNC(=N)N)NC(=O)[C@H](CCCNC(=N)N)NC1=O [Cyclorasin 9A32, (Trp-Tle-ala-Arg-Arg-Lys(FITC)-nal-Arg-Fpa-lys(3-bromo-5-fluorobenzoyl)-Gln)] (cyclo(K(FITC)[d2Nal]R[Phe(4-F)][dK](X5)QW[Tle][dA]RR))	> 20
C[C@H]1NC(=O)[C@H](C(C)(C)C)NC(=O)[C@H](CNC(=O)c2ccc(Cl)nc2)NC(=O)[C@H](CCC(N)=O)NC(=O)[C@@H](CCCCN)NC(=O)[C@H](Cc2ccc(F)cc2)NC(=O)[C@H](CCCNC(=N)N)NC(=O)[C@@H](Cc2ccc3ccccc3c2)NC(=O)[C@H](CCCCNC(=S)Nc2ccc3c(c2)C(=O)OC32c3ccc(O)cc3Oc3cc(O)ccc32)NC(=O)[C@H](CCCNC(=N)N)NC(=O)[C@H](CCCNC(=N)N)NC1=O [Cyclorasin 9A27, (Dap(6-chloronicotinoyl)-Tle-ala-Arg-Arg-Lys(FITC)-nal-Arg-Fpa-lys-Gln)] (cyclo([Dap](X4)[Tle][dA]RRK(FITC)[d2Nal]R[Phe(4-F)][dK]Q))	1 ± 0.1
C[C@H]1NC(=O)[C@H](C(C)(C)C)NC(=O)[C@H](CNC(=O)c2ccncc2)NC(=O)[C@H](CCC(N)=O)NC(=O)[C@@H](CCCCN)NC(=O)[C@H](Cc2ccc(F)cc2)NC(=O)[C@H](CCCNC(=N)N)NC(=O)[C@@H](Cc2ccc3ccccc3c2)NC(=O)[C@H](CCCCNC(=S)Nc2ccc3c(c2)C(=O)OC32c3ccc(O)cc3Oc3cc(O)ccc32)NC(=O)[C@H](CCCNC(=N)N)NC(=O)[C@H](CCCNC(=N)N)NC1=O [Cyclorasin 9A29, (Dap(isonicotinoyl)-Tle-ala-Arg-Arg-Lys(FITC)-nal-Arg-Fpa-lys-Gln)] (cyclo([Dap](Isonicotinoyl)[Tle][dA]RRK(FITC)[d2Nal]R[Phe(4-F)][dK]Q))	1.2 ± 0.1
C[C@H]1NC(=O)[C@H](C(C)(C)C)NC(=O)[C@H](CNC(=O)C=Cc2ccc(Cl)cc2)NC(=O)[C@H](CCC(N)=O)NC(=O)[C@@H](CCCCN)NC(=O)[C@H](Cc2ccc(F)cc2)NC(=O)[C@H](CCCNC(=N)N)NC(=O)[C@@H](Cc2ccc3ccccc3c2)NC(=O)[C@H](CCCCNC(=S)Nc2ccc3c(c2)C(=O)OC32c3ccc(O)cc3Oc3cc(O)ccc32)NC(=O)[C@H](CCCNC(=N)N)NC(=O)[C@H](CCCNC(=N)N)NC1=O [Cyclorasin 9A28, (Dap(4-chlorocinnamoyl)-Tle-ala-Arg-Arg-Lys(FITC)-nal-Arg-Fpa-lys-Gln)] (cyclo([Dap](X2)[Tle][dA]RRK(FITC)[d2Nal]R[Phe(4-F)][dK]Q))	0.16 ± 0.02

Target: T2, K-Ras / Raf RBD interaction (Homo sapiens, UniProt P01116, G12V)
T2 construct: The G12V mutant K-Ras (amino acids 1-185) was recombinantly fused; GST (N, cleaved yes); made in house; host or cells: Escherichia coli BL21
T2 sequence (P01116 1-185 isoform P01116-2 G12V): as above
Assay: HTRF assay, inhibition of Ras-Raf RBD interaction;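 note: HTRF signal read after overnight incubation of the assay plate at 4 °C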
Assay type: binding
Conditions: not given

SMILES	IC50 [µM]
CCCC[C@H]1NC(=O)[C@H](CNC(=O)c2cccc(Cl)c2)NC(=O)[C@H](CCCNC(=N)N)NC(=O)[C@@H](Cc2ccc3ccccc3c2)NC(=O)[C@H](CCCNC(=N)N)NC(=O)[C@H](CCCNC(=N)N)NC(=O)[C@H](CCCNC(=N)N)NC(=O)[C@@H](C)NC(=O)[C@H](C(C)(C)C)NC(=O)[C@H](Cc2c[nH]c3ccccc23)NC(=O)[C@H](CCC(N)=O)NC1=O [Cyclorasin 9A44d, (Trp-Tle-ala-Arg-Arg-Arg-nal-Arg-Dap(3-chlorobenzoyl)-nle-Gln)] (cyclo(W[Tle][dA]RRR[d2Nal]R[Dap](Benzoyl(3-Cl))[dNle]Q))	0.049 ± 0.007
CCCC[C@H]1NC(=O)[C@H](Cc2ccc(F)cc2)NC(=O)[C@H](CCCNC(=N)N)NC(=O)[C@@H](Cc2ccc3ccccc3c2)NC(=O)[C@H](CCCNC(=N)N)NC(=O)[C@H](CCCNC(=N)N)NC(=O)[C@@H](CCCNC(=N)N)NC(=O)[C@@H](C)NC(=O)[C@H]([C@@H](C)O)NC(=O)[C@H](Cc2c[nH]c3ccccc23)NC(=O)[C@H](CCC(N)=O)NC1=O [Cyclorasin 9A6, (Trp-Thr-ala-arg-Arg-Arg-nal-Arg-Fpa-nle-Gln)] (cyclo(WT[dA][dR]RR[d2Nal]R[Phe(4-F)][dNle]Q))	0.17

System: H1299 lung cancer cells
Assay: not given
Assay type: cell-based
Conditions: H1299 cells, MTT, 72 hours; read-out: Anti-proliferative Activity IC50
Method: MTT assays (17) were performed with H1299 lung cancer cells. One hundred μL of H1299 cells (0.5×10^5 cells/mL) were seeded in each well of a 96-well culture plate and allowed to grow overnight in Advanced RPMI medium supplemented with 10% fetal bovine serum (FBS) and 1% penicillin-streptomycin. Varying concentrations of cyclic peptide (0-25 μM) were added to the each well and the cells were incubated at 37° C. with 5% CO2 for 72 hours. Ten μL of a MTT stock solution (Roche) was added into each well. The plate was incubated at 37° C. for 4 h. Then 100 μL of SDS-HCl solubilizing buffer was added into each well, and the resulting solution was mixed thoroughly. The plate was incubated at 37° C. overnight. The absorbance of the formazan product was measured at 570 nm using a Molecular Devices Spectramax M5 plate reader. Each experiment was performed in triplicates and the cells without any peptide added were treated as control.

SMILES	IC50 [µM]
CCCC[C@H]1NC(=O)[C@H](CNC(=O)c2cccc(Cl)c2)NC(=O)[C@H](CCCNC(=N)N)NC(=O)[C@@H](Cc2ccc3ccccc3c2)NC(=O)[C@H](CCCNC(=N)N)NC(=O)[C@H](CCCNC(=N)N)NC(=O)[C@H](CCCNC(=N)N)NC(=O)[C@@H](C)NC(=O)[C@H](C(C)(C)C)NC(=O)[C@H](Cc2c[nH]c3ccccc23)NC(=O)[C@H](CCC(N)=O)NC1=O [Cyclorasin 9A44d, (Trp-Tle-ala-Arg-Arg-Arg-nal-Arg-Dap(3-chlorobenzoyl)-nle-Gln)] (cyclo(W[Tle][dA]RRR[d2Nal]R[Dap](Benzoyl(3-Cl))[dNle]Q))	14 ± 2

System: A549 cells
Assay: Cellular uptake of FITC-labeled peptides (live-cell confocal microscopy, FACS)
Conditions: Gln8 replaced with L- or D-arginine

SMILES	cell permeability relative to earlier peptides
CCCC[C@H]1NC(=O)[C@H](Cc2ccc(F)cc2)NC(=O)[C@H](CCCNC(=N)N)NC(=O)[C@@H](Cc2ccc3ccccc3c2)NC(=O)[C@H](CCCNC(=N)N)NC(=O)[C@H](CCCNC(=N)N)NC(=O)[C@@H](CCCNC(=N)N)NC(=O)[C@@H](C)NC(=O)[C@H]([C@@H](C)O)NC(=O)[C@H](Cc2c[nH]c3ccccc23)NC(=O)[C@H](CCC(N)=O)NC1=O [Cyclorasin 9A6, (Trp-Thr-ala-arg-Arg-Arg-nal-Arg-Fpa-nle-Gln)] (cyclo(WT[dA][dR]RR[d2Nal]R[Phe(4-F)][dNle]Q))	improved cell permeability

— patent US10736932B2, “Small molecule Ras inhibitors” (Ohio State Innovation Foundation, priority 2014, dated 2020)
